Data taken from article PMC12040169 (PLOS Biology, 2025).

Experiment: in vitro
Settings: human, hela cells, % viability

| Structure (SMILES) | viability at 28.5 h, 10 µM [%] |
| --- | --- |
| COc1cccc(OCC2CCCN(C(=O)CCc3cnn(C)c3)C2)c1 (stereo not shown) [CBK306931] | 85 |
| Cc1cccc2cnc(C3CCN(C(=O)c4cnn(C)c4C)CC3)cc12 [CBK285196] | 88.2 |
| COC(=O)c1ccc(N2CCN(Cc3cnoc3C)C(C)C2)cc1 (stereo not shown) [CBK306442] | 109 |
| CN(C)c1nc2c(ncn2C2OC(CO)C(O)C2O)c(=O)[nH]1 (stereo not shown) [CBK201295] | 96.3 |
| CC(C)CNS(=O)(=O)c1ccc(N2CCCC2=O)cc1 [CBK304981] | 106 |
| Cc1cc(-c2cc(=O)n(Cc3ccccc3C)nc2-c2ccco2)on1 [CBK282878] | 96.7 |
| CSc1nsc(SCc2cnc(C)nc2N)n1 [CBK268337] | 105 |
| O=C(NN=C1CCCCCCCCCCC1)c1cc2ccccc2cc1O [CBK261706] | 102 |
| COc1ccc(-n2[nH]c(C)c(Cc3c(Cl)cccc3Cl)c2=O)cc1 [CBK084521] | 94.5 |
| Cc1noc(C)c1CC(=O)N(C)CCN1CCCCC1 [CBK281855] | 88.8 |
| O=C(Nc1ccc2n(c1=O)C[C@H]1C[C@@H]2CN(C(=O)COc2ccccc2)C1)C1CCCCC1 [CBK289175] | 91.9 |
| COc1ccc2nc(NCc3ccccc3)sc2c1 [CBK287485] | 66.8 |
| CN(C)C(=O)CO[C@@H]1CO[C@H]2[C@@H]1OC[C@@H]2Nc1nccc(-c2cccs2)n1 [CBK289515] | 109 |
| CN(CC#CCN1CCCC1)C(=O)CNC(=O)OC(C)(C)C [CBK007489] | 111 |
| CCN(CC)CC(C)C(O)(c1ccc(Cl)cc1)c1ccc(Cl)cc1 (stereo not shown) [CBK012146C] | 103 |
| COc1cc(C(=O)Nc2cc(-c3nc4ncccc4o3)ccc2C)cc(OC)c1OC [CBK101133] | 97 |
| Cc1c(C(=O)Nc2cccnc2)nnn1-c1cccc(C(F)(F)F)c1 [CBK107389] | 97.1 |
| c1ccc(-c2cc(CC3(NCc4cccnc4)COC3)no2)nc1 [CBK289238] | 83.5 |
| O=C(c1ccccc1)c1ccc(CNC(=O)C2(c3ccccc3)CCCC2)cc1 [CBK161526] | 87.6 |
| CC(O)CNC(=O)c1cn2cc(-c3cccs3)n(CC3CC3)c(=O)c2n1 (stereo not shown) [CBK307117] | 81.3 |
| COc1ccc(C[C@@H]2NC(=O)[C@H]3CN(C(=O)c4cccn4C)CCN3C2=O)cc1 [CBK289616] | 93.4 |
| CC(C)CNC(=O)c1cc([C@H]2CC[C@H](CNC(=O)Cn3cccn3)CC2)nc2ccccc12 [CBK285860] | 102 |

| Structure (SMILES) | viability at 28.5 h, 10 µM [%] |
| --- | --- |
| O=C(N/N=C/C=C/c1ccc([N+](=O)[O-])cc1)C(O)c1ccccc1 (stereo not shown) [CBK261373] | 81.5 |
| CSc1ccccc1Nc1ncnc2n[nH]cc12 [CBK288099] | 114 |
| CC(C)c1ccc(C(C)NC(=O)c2ccc(=O)n(CC(=O)NC3CCCC3)c2)cc1 (stereo not shown) [CBK286038] | 97.4 |
| COc1c(C)cccc1C(=O)N1CCC(c2cc3cnccc3[nH]2)CC1 [CBK283460] | 89.9 |
| NC(=O)C1CCN(Cc2cc3c(cc2[N+](=O)[O-])OCO3)CC1 [CBK261885] | 91.7 |
| O=c1cc(O)c2ccccc2n1Cc1ccccc1F [CBK291162] | 86.3 |
| O=C(Nc1ccc(I)cc1C(=O)N1CCCCC1CCO)c1cccc2ccccc12 (stereo not shown) [CBK266212] | 113 |
| CC(C)[C@@H](CO)Nc1nc(-c2ccc(S(C)(=O)=O)cc2)cnc1N [CBK063750] | 91.2 |
| O=C(Nc1cccc(CCc2nc3ccccc3[nH]2)c1)c1ccc(Cn2cncn2)cc1 [CBK285648] | 89.1 |
| CCCS(=O)(=O)NC1CC(C)(C)Cc2c1cnn2-c1ccc(F)cc1 (stereo not shown) [CBK306770] | 113 |
| Cc1nc(C2CCCN(C(=O)CCc3ccno3)C2)c2sccn12 (stereo not shown) [CBK285237] | 87.5 |
| CCc1nc(NC(=O)c2ccnc(Cl)c2)sc1C [CBK298287] | 101 |
| Cc1nc(S(=O)(=O)Nc2ccc3[nH]ccc3c2)cn1C [CBK156800] | 68.3 |
| CCOC(=O)c1cn([C@H](CO)CCSC)cc(Oc2ccccc2)c1=O [CBK307349] | 98.9 |
| Cc1cccc(-n2ncc3c(=O)n(CC(=O)NC4CCCCC4)cnc32)c1C [CBK287694] | 104 |
| O=C(CN1CCOCC1)N/N=C/c1cc2ccccc2nc1Cl [CBK262732] | 101 |
| CSc1sc(NC(=O)Nc2cccc(C(F)(F)F)c2)cc1C#N [CBK017114] | 93.9 |
| CC1CCCN(C(=O)N(C)C)C1 (stereo not shown) [CBK023175] | 118 |
| Cc1ccc(-n2c(C)c([N+](=O)[O-])c3ccc(O)cc32)cc1 [CBK094246] | 86.2 |
| CC1CC1C(=O)NCCN1CCC(O)(c2cccc(F)c2)CC1 (stereo not shown) [CBK283286] | 84.4 |
| COc1ccc(CNc2ccc(N3CCOCC3)c(C(=O)O)c2)cc1OC [CBK269915] | 95.2 |
| OCc1ccccc1-c1cncc(NCc2ccc3c(c2)OCO3)n1 [CBK065318] | 89.2 |

| Structure (SMILES) | viability at 28.5 h, 10 µM [%] |
| --- | --- |
| O=c1cc(O)c2cc([N+](=O)[O-])ccc2n1CCc1ccccc1 [CBK291165] | 90.8 |
| O=C(NCCN1CCN(C(=O)Nc2ccccc2)CC1)C1CCCC1 [CBK305915] | 95.8 |
| O=c1oc(-c2ccco2)nn1Cc1ccc([N+](=O)[O-])cc1 [CBK295593] | 94.8 |
| c1ccc(COc2cccc(CNCCN3CCOCC3)c2)cc1 [CBK278226C] | 95.8 |
| O=C1COc2ccc(S(=O)(=O)NCc3ccccc3)cc2N1 [CBK270156] | 93.7 |
| CN(C)S(=O)(=O)c1ccc(Cl)c(C(=O)Nc2cccc(O)c2)c1 [CBK265723] | 113 |
| CC[C@H](Cn1ncc2ccccc2c1=O)NC(=O)CC(C)C [CBK284305] | 89.1 |
| Nc1ncc(-c2cccc(-c3ccccc3)c2)nc1N1CCN(CCO)CC1 [CBK063410] | 113 |
| O=C(CSc1ncn[nH]1)Nc1ncccn1 [CBK058488] | 105 |
| Cc1cc(C)n(CC(C)CNC(=O)NCCN2CCCCCC2=O)n1 (stereo not shown) [CBK305389] | 92 |
| CCn1cc(C(C)NC(=S)Nc2ccc(OC)cc2OC)c(C)n1 (stereo not shown) [CBK266950] | 90 |
| CC(Sc1ccccc1)C(=O)NCCN1CCOCC1 (stereo not shown) [CBK269332] | 95.9 |
| CN(Cc1ccc(CN2CCOC(c3ccccc3)C2)o1)S(C)(=O)=O (stereo not shown) [CBK306808] | 88.2 |
| Cc1ccc(S(=O)(=O)NC2c3cccc4cccc(c34)C2Sc2nncn2N)cc1 (stereo not shown) [CBK265873] | 112 |
| CC1=C(C)C(=NNC(N)=S)C(C)=C(C)C1=NNC(N)=S [CBK261262] | 91.9 |
| CCCn1ccnc1-c1cn(Cc2cc(C(C)(C)C)n[nH]2)nn1 [CBK306791] | 118 |
| COC(=O)c1cn([C@H]2CO[C@H]3[C@@H]2OC[C@@H]3NC(=O)C2CCCCC2)nn1 [CBK289496] | 98.4 |
| Cc1ccc(C(=O)Cn2c3ccccc3n3ncnc23)cc1 [CBK263081] | 99.6 |
| COc1ccc(-c2cnc3[nH]c(=O)n([C@H](C)c4ccccc4)c3n2)c(OC)c1OC [CBK064236] | 94.7 |
| Cc1cnn(C(C)C(=O)N2CCc3c(nc(N(C)C)nc3N(C)C)C2)c1 (stereo not shown) [CBK307556] | 109 |
